# Data reported in patent EP1401467B3, “ALPHA-FETOPROTEIN PEPTIDES AND USES THEREOF” (Albany Medical College, priority 2001, dated 2003).
# “Also recorded” adds a separate entry of the source. Square brackets hold non-standard residues; d marks the D form. Peptide text beside a SMILES is read from it. Hyp = O=C(O)[C@@H]1C[C@@H](O)CN1
# Key:
# [1] = system: E2-stimulated growth of immature mouse uterus; conditions: for dose of maximal inhibitory activity on estrogen-stimulated growth of immature mouse uterus: i.p., dose-response
# Method: (§1) Peptide or vehicle control was injected i.p. into immature female Swiss mice. One hour later 0.5 µg of E2 or vehicle control was injected i.p. into these mice. Twenty-two hours later, uteri were dissected and weighed. Percent inhibition of E2-stimulated growth of uterus by peptide was calculated as described in Materials and Methods. There were five to eight replicate mice per treatment group. (Figure 1a) Peptide dose-response. […] Peptide, SEQ ID NO:2: […], was fractionated using a Waters SW 200 gel-filtration column using phosphate buffered saline pH 7.4 as mobil phase. Fractions which had significant UV absorbance at 230 nm were collected at twenty second intervals. The first fraction (Frac I), the last fraction (Frac III), and the starting material (UnFrac) were all tested in the immature mouse uterine growth assay as described in Figures 1a and 1b. […] (Figure 3a) dose-response. […] (Figure 4a) dose-response. […] There were five to eight replicate mice per treatment group. Estrogen was provided via a slow release pellet implanted subcutaneously. Peptide was given twice a day i.p. at a dose of 1 µg per mouse. Tumor volumes in each mouse were measured at the time of tumor implantation and at 10-day intervals thereafter during survival laparotomies. […] (Figure 6a) dose-response. […] Experimental protocol is described in legend to Figure 5 and Materials and Methods. […] Rabbit uterine cytosol was used as a source of estrogen receptor. All incubations were performed in triplicate, each containing 100 µl of cytosol, 20 µl of 10 nM 6,7-^3Hestradiol (50 Ci/mmol), and 80 µl of test agent at the final concentrations indicated on the abscissa. Details of the assay are described in Materials and Methods. • Concentration of [^3H] E2-complex with receptor in the presence of different concentrations of test agent is expressed as a percentage of the amount of complex formed in the absence of test agent; • Figures 9a and 9b illustrate the effect of AFP-derived peptide on growth of estrogen-receptor-positive MCF-7 and MCF-7/Tam.human breast cancer xenografts. Tumors were implanted as described in Materials and Methods. […] Tumor volumes in each mouse were measured at the time of tumor implantation, again at day 15 after tumor implantation during survival laparotomy and again at day 30 after tumor implantation during necropsy. There was a minimum of 5 mice per group. (Figure 9a) MCF-7 tumors. […] See legend to Figures 9a and 9b for experimental protocol. […] See legend to Figures 9a and 9b for experimental protocol. […] Rabbit uterine cytosol was used as a source of estrogen receptor. All incubations were performed in triplicate, each containing 100 µl of cytosol, 20 µl of 10 nM 6,7-^3H estradiol (50 Ci/mmol), and 80 µl of test agent at the final concentrations indicated on the abscissa. Concentration of [^3H] […] The assay procedure is described in the Materials and Methods.
# [2] = Shelf-life / storage studies of lyophilized peptide, read out in the immature mouse uterine growth assay; type: physicochemical; conditions: for shelf-life: storage in the lyophilized state at -20°C, activity tested in immature mouse uterine growth assay
# Method: Peptide or vehicle control was injected i.p. into immature female Swiss mice. One hour later 0.5 µg of E2 or vehicle control was injected i.p. into these mice. Twenty-two hours later, uteri were dissected and weighed. Percent inhibition of E2-stimulated growth of uterus by peptide was calculated as described in Materials and Methods. There were five to eight replicate mice per treatment group. (Figure 1a) Peptide dose-response. […] Peptide, SEQ ID NO:2: […], was fractionated using a Waters SW 200 gel-filtration column using phosphate buffered saline pH 7.4 as mobil phase. Fractions which had significant UV absorbance at 230 nm were collected at twenty second intervals. The first fraction (Frac I), the last fraction (Frac III), and the starting material (UnFrac) were all tested in the immature mouse uterine growth assay as described in Figures 1a and 1b. […] (Figure 3a) dose-response. […] (Figure 4a) dose-response. […] There were five to eight replicate mice per treatment group. Estrogen was provided via a slow release pellet implanted subcutaneously. Peptide was given twice a day i.p. at a dose of 1 µg per mouse. Tumor volumes in each mouse were measured at the time of tumor implantation and at 10-day intervals thereafter during survival laparotomies. […] (Figure 6a) dose-response. […] Experimental protocol is described in legend to Figure 5 and Materials and Methods. […] Rabbit uterine cytosol was used as a source of estrogen receptor. All incubations were performed in triplicate, each containing 100 µl of cytosol, 20 µl of 10 nM 6,7-^3Hestradiol (50 Ci/mmol), and 80 µl of test agent at the final concentrations indicated on the abscissa. Details of the assay are described in Materials and Methods. • Concentration of [^3H] E2-complex with receptor in the presence of different concentrations of test agent is expressed as a percentage of the amount of complex formed in the absence of test agent; • Figures 9a and 9b illustrate the effect of AFP-derived peptide on growth of estrogen-receptor-positive MCF-7 and MCF-7/Tam.human breast cancer xenografts. Tumors were implanted as described in Materials and Methods. […] Tumor volumes in each mouse were measured at the time of tumor implantation, again at day 15 after tumor implantation during survival laparotomy and again at day 30 after tumor implantation during necropsy. There was a minimum of 5 mice per group. (Figure 9a) MCF-7 tumors. […] See legend to Figures 9a and 9b for experimental protocol. […] See legend to Figures 9a and 9b for experimental protocol. […] Rabbit uterine cytosol was used as a source of estrogen receptor. All incubations were performed in triplicate, each containing 100 µl of cytosol, 20 µl of 10 nM 6,7-^3H estradiol (50 Ci/mmol), and 80 µl of test agent at the final concentrations indicated on the abscissa. […]
# [3] = system: MCF-7 human breast cancer xenografts; test: Human breast cancer xenograft assay, MCF-7; type: in vivo; conditions: E2 implant, 30-day observation
# Method: Peptide or vehicle control was injected i.p. into immature female Swiss mice. One hour later 0.5 µg of E2 or vehicle control was injected i.p. into these mice. Twenty-two hours later, uteri were dissected and weighed. Percent inhibition of E2-stimulated growth of uterus by peptide was calculated as described in Materials and Methods. There were five to eight replicate mice per treatment group. (Figure 1a) Peptide dose-response. […] Peptide, SEQ ID NO:2: […], was fractionated using a Waters SW 200 gel-filtration column using phosphate buffered saline pH 7.4 as mobil phase. Fractions which had significant UV absorbance at 230 nm were collected at twenty second intervals. The first fraction (Frac I), the last fraction (Frac III), and the starting material (UnFrac) were all tested in the immature mouse uterine growth assay as described in Figures 1a and 1b. […] (Figure 3a) dose-response. […] (Figure 4a) dose-response. […] There were five to eight replicate mice per treatment group. Estrogen was provided via a slow release pellet implanted subcutaneously. Peptide was given twice a day i.p. at a dose of 1 µg per mouse. Tumor volumes in each mouse were measured at the time of tumor implantation and at 10-day intervals thereafter during survival laparotomies. […] (Figure 6a) dose-response. […] Experimental protocol is described in legend to Figure 5 and Materials and Methods. […] Rabbit uterine cytosol was used as a source of estrogen receptor. […] E2-complex with receptor in the presence of different concentrations of test agent is expressed as a percentage of the amount of complex formed in the absence of test agent; • Figures 9a and 9b illustrate the effect of AFP-derived peptide on growth of estrogen-receptor-positive MCF-7 and MCF-7/Tam.human breast cancer xenografts. […] Tumor volumes in each mouse were measured at the time of tumor implantation, again at day 15 after tumor implantation during survival laparotomy and again at day 30 after tumor implantation during necropsy. […]
# [4] = mouse, in vivo
# estrogen receptor = target: T1, estrogen receptor (Oryctolagus cuniculus, UniProt G1SML6); conditions: at a concentration of 100 nM; rabbit uterine cytosol
# T1 sequence (G1SML6 1-598): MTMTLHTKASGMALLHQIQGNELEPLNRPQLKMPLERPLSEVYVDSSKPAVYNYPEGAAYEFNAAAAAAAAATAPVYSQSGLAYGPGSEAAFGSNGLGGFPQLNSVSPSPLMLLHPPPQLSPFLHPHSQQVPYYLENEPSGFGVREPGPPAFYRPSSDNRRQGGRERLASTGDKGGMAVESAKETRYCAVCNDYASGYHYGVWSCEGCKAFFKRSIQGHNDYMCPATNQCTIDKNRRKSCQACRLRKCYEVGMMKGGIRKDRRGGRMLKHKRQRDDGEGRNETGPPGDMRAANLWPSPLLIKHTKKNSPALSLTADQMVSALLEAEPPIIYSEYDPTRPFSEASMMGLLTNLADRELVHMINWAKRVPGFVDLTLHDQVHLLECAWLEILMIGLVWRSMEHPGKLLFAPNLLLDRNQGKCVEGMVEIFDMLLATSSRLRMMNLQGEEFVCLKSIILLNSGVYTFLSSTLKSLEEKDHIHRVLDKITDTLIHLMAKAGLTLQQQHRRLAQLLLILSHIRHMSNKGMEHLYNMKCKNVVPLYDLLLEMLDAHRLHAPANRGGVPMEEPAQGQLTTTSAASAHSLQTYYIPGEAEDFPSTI
# Method: as §1
# [5] = system: MCF-7 human breast cancer xenografts; conditions: earlier study (Bennett et al. 1998); cited from earlier work
# [6] = system: MDA-MB-231 human breast cancer xenografts; test: Human breast cancer xenograft assay, MDA-MB-231; type: in vivo; conditions: tamoxifen 50 µg per mouse i.p. once a day
# [7] = system: T47D human breast cancer xenografts; test: Human breast cancer xenograft assay, T47D; type: in vivo; conditions: tamoxifen
# [8] = system: MCF-7/Tam human breast cancer xenografts; test: Human breast cancer xenograft assay, tamoxifen-resistant MCF-7 subline; type: in vivo; conditions: tamoxifen 50 µg per mouse i.p. once a day; E2 implant; day 30
# Method: Peptide or vehicle control was injected i.p. into immature female Swiss mice. One hour later 0.5 µg of E2 or vehicle control was injected i.p. into these mice. Twenty-two hours later, uteri were dissected and weighed. Percent inhibition of E2-stimulated growth of uterus by peptide was calculated as described in Materials and Methods. There were five to eight replicate mice per treatment group. (Figure 1a) Peptide dose-response. […] Peptide, SEQ ID NO:2: […], was fractionated using a Waters SW 200 gel-filtration column using phosphate buffered saline pH 7.4 as mobil phase. Fractions which had significant UV absorbance at 230 nm were collected at twenty second intervals. […] Tumor volumes in each mouse were measured at the time of tumor implantation and at 10-day intervals thereafter during survival laparotomies. […] E2-complex with receptor in the presence of different concentrations of test agent is expressed as a percentage of the amount of complex formed in the absence of test agent; • Figures 9a and 9b illustrate the effect of AFP-derived peptide on growth of estrogen-receptor-positive MCF-7 and MCF-7/Tam.human breast cancer xenografts. […] Tumor volumes in each mouse were measured at the time of tumor implantation, again at day 15 after tumor implantation during survival laparotomy and again at day 30 after tumor implantation during necropsy. […]
structure (smiles),measurement,setting,value
CSCC[C@@H]1NC(=O)[C@H](CCC(=O)O)NC(=O)[C@H](CCC(N)=O)NC(=O)CNC(=O)[C@@H]2CCCN2C(=O)[C@H](CC(N)=O)NC(=O)[C@H](C(C)C)NC(=O)[C@@H]2CCCN2C(=O)[C@H]([C@@H](C)O)NC1=O (cyclo(EMTPVNPGQ)),inhibition of estrogen-stimulated growth of immature mouse uterus,[1]; at the optimal dose of the linear peptides (1 µg),very active
same,dose of maximal inhibitory activity on estrogen-stimulated growth of immature mouse uterus,[1],10 µg per mouse
same,biological activity after prolonged storage,[2]; after storage of six months,"significant, albeit not optimal, biological activity"
same,shelf-life,[2],somewhat extended but still rather limited shelf-life
same,biological activity after treatment with 4 M urea,"[2]; stored/aged peptide, brief treatment with 4 M urea",restored the optimal biological activity
"CSCC[C@@H]1NC(=O)[C@H](CCC(=O)O)NC(=O)[C@H](CCC(N)=O)NC(=O)CNC(=O)[C@@H]2C[C@@H](O)CN2C(=O)[C@H](CC(N)=O)NC(=O)[C@H](C(C)C)NC(=O)[C@@H]2C[C@@H](O)CN2C(=O)[C@H]([C@@H](C)O)NC1=O [Cyclo-(SEQ ID NO:5: EMTOVNOGQ), Cyclo-(EMTOVNOGQ)] (cyclo(EMT[Hyp]VN[Hyp]GQ))",anti-estrotrophic activity,[1]; at doses higher than 10 µg/mouse,retained significant anti-estrotrophic activity
same,dose of maximal inhibitory activity on estrogen-stimulated growth of immature mouse uterus,[1],10 µg per mouse
same,estrogen-dependent growth of MCF-7 human breast cancer xenografts (tumor volume vs E2 alone),"[3]; peptide 1 µg per mouse i.p. twice a day, SCID mice",significantly inhibited
same,shelf-life,[2],Indefinite shelflife; also recorded: indefinite shelf-life
"CSCC[C@H](NC(=O)[C@@H](N)CCC(=O)O)C(=O)N[C@H](C(=O)N1C[C@H](O)C[C@H]1C(=O)N[C@H](C(=O)N[C@@H](CC(N)=O)C(=O)N1C[C@H](O)C[C@H]1C(=O)NCC(N)=O)C(C)C)[C@@H](C)O [SEQ ID NO:4: EMTOVNOG, EMTOVNOG] (H-EMT[Hyp]VN[Hyp]G-NH2)",biological half-life,[4],two to three
O=C(c1ccc(OCCN2CCCCC2)cc1)c1c(-c2ccc(O)cc2)sc2cc(O)ccc12 [raloxifene],inhibition of estradiol binding to its receptor,estrogen receptor,completely inhibited
CC/C(=C(\c1ccccc1)c1ccc(OCCN(C)C)cc1)c1ccccc1 [tamoxifen],estrogen-dependent growth of MCF-7 human breast cancer xenografts (tumor volume vs E2 alone),[3]; tamoxifen 50 µg per mouse i.p. once a day,prevented growth; also recorded: no increase in tumor volume
same,estrogen-dependent growth of MCF-7 human breast cancer xenografts (tumor volume vs E2 alone),"[3]; tamoxifen 50 µg per mouse i.p. once a day, listed as Tamoxifen",significantly different
same,MCF-7 breast cancer xenograft growth,[5],stop MCF-7 breast cancer xenograft growth
same,growth of ER- MDA-MB-231 human breast cancer xenografts,[6],Neither peptide nor tamoxifen were effective; also recorded: did not affect the growth
same,growth of ER+ T47D human breast cancer xenografts,[7],prevented growth
same,growth of tamoxifen-resistant MCF-7 subline xenografts (tumor volume vs E2 alone),[8],resistant to tamoxifen in vivo; also recorded: only minimally effective
